Measured values published in patent publication US10512651B2, “Inhibition of MK2 in the treatment of cancer” (STC.UNM, priority 2014, dated 2019).

Assays:
[1] = test system: Caco-2 colon cancer cells; assay: Caco-2 scratch wound assay (proliferation and migration); assay type: cell-based; details: Caco-2 cells incubated with inhibitor, FIG. 9
Description: FIG. 9 is a graph showing that MK2 inhibition decreases colon cancer carcinoma cell proliferation. Incubating Caco-2 colon cancer cells with the MK2 inhibitor (MK2a) decreased proliferation and migration in a scratch wound assay.

[2] = test system: neoplasms in AOM/DSS exposed mice; assay: AOM/DSS mouse model of colon cancer, neoplasm number after MK2 inhibitor treatment; assay type: in vivo; details: treated three times a week for three weeks; FIG. 10
Description: FIG. 10 is a graph showing that AOM/DSS exposed mice treated with MK2 inhibitors regresses neoplasms.
Mice: C57Bl/6 mice from Harlan Laboratories and the MK2^−/−tm1Mgl (8) mouse strain were bred under pathogen free conditions. Animal procedures were approved by the UNM IACUC. Azoxymethane (AOM), (Sigma Aldrich, St. Louis, Mo.) was injected […] into 6-8 week old female mice at 12.5 mg/kg. Dextran Sodium Sulfate (DSS), (MP Biomedicals, MW 36,000-50,000) was added to drinking water at 2.5% at days 5 and 26 and at 2.0% at day 47, 2.0% for 5 days sacrificed at day 80. Control mice received PBS IP and no DSS in water. Mouse Colon Supernatants: 8 mg (±0.5 mg) of cleaned colon tissues were incubated in complete RPMI with antibiotics for 12 hours. Supernatants were analyzed for cytokines by Luminex bead array (Millipore, Billerica, Mass.) according to manufacturer's instructions.

O=C(CCCc1ccc(-c2ccccc2F)cc1)Nc1ccc(O)cc1 [MK2a inhibitor]
migration in a scratch wound assay [1]: decreased | colon cancer carcinoma cell proliferation ([1]; scratch wound assay): decreased | neoplasms (number) in AOM/DSS exposed mice [2]: significantly less neoplasms
